These compounds were tested against T1, Proteasome Macropain subunit MB1 (Homo sapiens) (UniProt P28074).
T1 sequence (whole entry): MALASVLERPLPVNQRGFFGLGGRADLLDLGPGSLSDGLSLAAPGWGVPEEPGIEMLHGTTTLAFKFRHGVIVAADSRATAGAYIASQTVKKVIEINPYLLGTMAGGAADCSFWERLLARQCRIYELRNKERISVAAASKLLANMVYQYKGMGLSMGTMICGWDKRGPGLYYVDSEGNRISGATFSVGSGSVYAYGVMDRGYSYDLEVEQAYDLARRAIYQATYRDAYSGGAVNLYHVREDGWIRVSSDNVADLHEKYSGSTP
`COC(=O)[C@@H](NC(=O)N[C@H](C(=O)N[C@H]1CCCCNC(=O)/C=C/[C@H](Cc2cc(F)cc(F)c2)NC1=O)C(C)C)C(C)C` was tested, and the Kin was 0.0005 s⁻¹.
With `COC(=O)[C@@H](NC(=O)N[C@H](C(=O)N[C@H]1CCCCNC(=O)/C=C/[C@H](Cc2cccc(F)c2)NC1=O)C(C)C)C(C)C` the Kin was 0.000486 s⁻¹.

These compounds were tested against T2, Proteasome Macropain subunit MB1 (Homo sapiens, UniProt P28074) (assay: Inhibition of human 20S proteasome beta5 subunit using Suc-LLVY-AMC as substrate by fluorescence assay).
T2 sequence (P28074 whole entry): T1 sequence (whole entry)
Work on `COC(=O)[C@@H](NC(=O)N[C@H](C(=O)N[C@H]1CCCCNC(=O)/C=C/[C@H](Cc2ccccc2Cl)NC1=O)C(C)C)C(C)C` yielded a Ki of 2.11 µM.
Work on `COC(=O)[C@@H](NC(=O)N[C@H](C(=O)N[C@H]1CCCCNC(=O)/C=C/[C@H](Cc2cc(F)cc(F)c2)NC1=O)C(C)C)C(C)C` yielded a Ki of 0.952 µM.
With `COC(=O)[C@@H](NC(=O)N[C@H](C(=O)N[C@H]1CCCCNC(=O)/C=C/[C@H](Cc2cccc(F)c2)NC1=O)C(C)C)C(C)C` the Ki was 0.592 µM.
`COC(=O)[C@@H](NC(=O)N[C@H](C(=O)N[C@H]1CCCCNC(=O)/C=C/[C@H](Cc2ccccc2F)NC1=O)C(C)C)C(C)C` showed a Ki of 0.906 µM.
Work on `COC(=O)[C@@H](NC(=O)N[C@H](C(=O)N[C@H]1CCCCNC(=O)/C=C/[C@H](Cc2ccccc2)NC1=O)C(C)C)C(C)C` yielded a Ki of 0.743 µM.
For `COC(=O)[C@@H](NC(=O)N[C@H](C(=O)N[C@H]1CCCCNC(=O)/C=C/[C@H](Cc2cccc(C(F)(F)F)c2)NC1=O)C(C)C)C(C)C`, the Ki was 7.58 µM.
Work on `COC(=O)[C@@H](NC(=O)N[C@H](C(=O)N[C@H]1CCCCNC(=O)/C=C/[C@H](Cc2ccc(Cl)cc2)NC1=O)C(C)C)C(C)C` yielded a Ki of 1.24 µM.
In the case of `COC(=O)[C@@H](NC(=O)N[C@H](C(=O)N[C@H]1CCCCNC(=O)/C=C/[C@H](Cc2cccc(C)c2)NC1=O)C(C)C)C(C)C`, the Ki is reported as 2.35 µM.
`COC(=O)[C@@H](NC(=O)N[C@H](C(=O)N[C@H]1CCCCNC(=O)/C=C/[C@H](Cc2cccc(Cl)c2)NC1=O)C(C)C)C(C)C` showed a Ki of 0.963 µM.
`COC(=O)[C@@H](NC(=O)N[C@H](C(=O)N[C@H]1CCCCNC(=O)/C=C/[C@H](Cc2ccc(C)cc2)NC1=O)C(C)C)C(C)C` showed a Ki of 1.14 µM.
`COC(=O)[C@@H](NC(=O)N[C@H](C(=O)N[C@H]1CCCCNC(=O)/C=C/[C@H](CC(C)C)NC1=O)C(C)C)C(C)C` gave a Ki of 3.23 µM.

From ChEMBL document CHEMBL3612027, “Substrate-guided optimization of the syringolins yields potent proteasome inhibitors with activity against leukemia cell lines” (Bioorg Med Chem, 2015)
